Assay results as given in publication PMC4546427, “Stereoselective Regulation of P-gp Activity by Clausenamide Enantiomers in Caco-2, KB/KBv and Brain Microvessel Endothelial Cells” (PLoS ONE, 2015).

Experiments:
P-gp = molecular target: T1, P-gp (Homo sapiens, UniProt P08183); experiment: Rh123 accumulation in non-induced KB cells; format: cell-based; details: CLA 5 μmol/L, Rh123 5 μmol/L
T1 construct: three cells expressing P-gp, Caco-2, KBv and rat brain microvessel endothelial cells (RBMEC); endogenous in cells; host or cells: Caco-2
Description: KB or its vinblastine-resistance derivative KBv cells[19] were maintained on 6-well plates (5 × 10^5 cells/well) in […] medium with 10% FBS, 100 units/mL penicillin and 100 μg/mL streptomycin sulphate at 37°C with 95% air and 5% CO2. After reaching 80%–90% confluence, the two cells were treated with the following agents, respectively: vehicle; (−)CLA (5 or 10 μmol/L); (+)CLA (5 or 10 μmol/L). Additionally, the KBv cells were treated with verapamil (200 μmol/L); or individual enantiomer (5 or 10 μmol/L) plus verapamil (200 μmol/L). Rh123 (5 μmol/L) were finally added to these wells. Subsequently, cell incubation, solubilisation and Rh123 accumulation were performed by using the same method for Caco-2 cells.

[1] = design: method as in PMID 23684935; details: cited from earlier work
[2] = design: method as in PMID 23684935; details: rabbits; oral dose of 100 mg/kg; cited from earlier work
Caco-2 cells = experiment: Uptake of CLA enantiomers in Caco-2 cells (LC-MS/MS); format: in vitro ADME, Human; details: for Intracellular concentration: Mean±SD, n = 3
Description: Caco-2 cells on 6-well plates (5 × 10^5 cells/well) were cultured in MEM containing 10% (v/v) FBS, 1% (v/v) NEAA, 100 units/mL penicillin and 100 μg/mL streptomycin sulphate at 37°C with 95% air and 5% CO2. When 80%–90% confluence was observed using an inverted light microscope, the cells were treated, respectively, with (−)CLA or (+)CLA at 1, 2.5 and 5 μmol/L for 2 h, washed 3 times with ice-cold PBS, collected into 1.5-mL Eppendorf tubes and centrifuged at 1500 rpm for 5 min. The precipitates were lysed with 80 μL of lysis buffer described above, frozen with liquid nitrogen, then thawed in water at 37°C three times, and then centrifuged at 10,000 rpm for 10 min (4°C). We used 10 μL of supernatant for the determination of protein concentration using Lowry’s method with bovine serum albumin as the standard, and the residue of the supernatants was subjected to extraction with ethyl acetate. The internal standard (IS) was 20 μL of glipizide (5.2 μg/mL). Extracted CLA enantiomer and glipizide were measured by a liquid chromatography-tandem mass spectrometr(LC-MS/MS).
The LC-MS/MS system consisted of an Alliance HT 2795 LC pump, an autosampler, and a Micromass Quattro Premier tandem quadrupole mass spectrometer with an electrospray ionization (ESI) source and Masslynx version 4.1 software (Waters Corp., Milford, MA, USA). The separation of CLA enantiomer and glipizide was performed using an XBridge C18 column (2.1 mm × 50 mm; i.d., 3.5 μm) (Waters Corp., Milford, MA, USA). The column temperature was maintained at 22°C, and the sample injection volume was 20 μL in the autosampler at 4°C. Mobile phases A and B were water with 0.1% (v/v) acetic acid and acetonitrile with 0.1% (v/v) acetic acid, respectively. Gradient elution was used at a flow rate of 0.25 mL/min for 8 min with 80% A and 20% B for 0–2 min, 5% A and 95% B for 2–4 min and 80% A and 20% B for 4.01–8 min. The LC system was connected to the mass spectrometer by an electrospray interface. The positive-ion ESI mode was selected, and the electrospray capillary voltage was 3.5 kV. Desolvation gas (ultrapure nitrogen) flow and cone gas flow were provided separately at rates of 600 L/h and 50 L/h, and source and desolvation temperatures were set at 110°C and 450°C, respectively. Argon was used as a collision gas in collision-induced dissociation of precursor ions at a flow rate of 0.27 mL/min. The data were acquired using multiple reaction monitoring mode and analysed by Masslynx software 4.1. The main parameters (retention time, ion channel, cone voltage and collision energy) were as follows: 2.66 min, 298.2–174.1, 25 V and 17 V for CLA enantiomer; and 2.97 min, 446.7–321.2, 25 V and 12 V for glipizide (IS), respectively. The lower limit of quantification of CLA enantiomer was 0.25 ng/mL. The mean relative recovery was 89%, and intra-assay and inter-assay coefficients of variation were <15%. The range of linearity was 0.25–200 ng/mL with r = 0.999. The concentrations of (−) or (+)CLA were quantified by standard curves according to their peak areas against the IS.

[3] = design: method as in PMID 12923804; details: rats; oral administration; n = 6; cited from earlier work
CYP3A1 = system: CYP3A1; design: method as in PMID 23684935, PMID 12692891; details: rat liver; cited from earlier work
[4] = dose of CLA enantiomer 1.0 μmol/L, 2 h
[5] = dose of CLA enantiomer 2.5 μmol/L, 2 h
[6] = dose of CLA enantiomer 5.0 μmol/L, 2 h

T1 sequence (P08183 whole entry): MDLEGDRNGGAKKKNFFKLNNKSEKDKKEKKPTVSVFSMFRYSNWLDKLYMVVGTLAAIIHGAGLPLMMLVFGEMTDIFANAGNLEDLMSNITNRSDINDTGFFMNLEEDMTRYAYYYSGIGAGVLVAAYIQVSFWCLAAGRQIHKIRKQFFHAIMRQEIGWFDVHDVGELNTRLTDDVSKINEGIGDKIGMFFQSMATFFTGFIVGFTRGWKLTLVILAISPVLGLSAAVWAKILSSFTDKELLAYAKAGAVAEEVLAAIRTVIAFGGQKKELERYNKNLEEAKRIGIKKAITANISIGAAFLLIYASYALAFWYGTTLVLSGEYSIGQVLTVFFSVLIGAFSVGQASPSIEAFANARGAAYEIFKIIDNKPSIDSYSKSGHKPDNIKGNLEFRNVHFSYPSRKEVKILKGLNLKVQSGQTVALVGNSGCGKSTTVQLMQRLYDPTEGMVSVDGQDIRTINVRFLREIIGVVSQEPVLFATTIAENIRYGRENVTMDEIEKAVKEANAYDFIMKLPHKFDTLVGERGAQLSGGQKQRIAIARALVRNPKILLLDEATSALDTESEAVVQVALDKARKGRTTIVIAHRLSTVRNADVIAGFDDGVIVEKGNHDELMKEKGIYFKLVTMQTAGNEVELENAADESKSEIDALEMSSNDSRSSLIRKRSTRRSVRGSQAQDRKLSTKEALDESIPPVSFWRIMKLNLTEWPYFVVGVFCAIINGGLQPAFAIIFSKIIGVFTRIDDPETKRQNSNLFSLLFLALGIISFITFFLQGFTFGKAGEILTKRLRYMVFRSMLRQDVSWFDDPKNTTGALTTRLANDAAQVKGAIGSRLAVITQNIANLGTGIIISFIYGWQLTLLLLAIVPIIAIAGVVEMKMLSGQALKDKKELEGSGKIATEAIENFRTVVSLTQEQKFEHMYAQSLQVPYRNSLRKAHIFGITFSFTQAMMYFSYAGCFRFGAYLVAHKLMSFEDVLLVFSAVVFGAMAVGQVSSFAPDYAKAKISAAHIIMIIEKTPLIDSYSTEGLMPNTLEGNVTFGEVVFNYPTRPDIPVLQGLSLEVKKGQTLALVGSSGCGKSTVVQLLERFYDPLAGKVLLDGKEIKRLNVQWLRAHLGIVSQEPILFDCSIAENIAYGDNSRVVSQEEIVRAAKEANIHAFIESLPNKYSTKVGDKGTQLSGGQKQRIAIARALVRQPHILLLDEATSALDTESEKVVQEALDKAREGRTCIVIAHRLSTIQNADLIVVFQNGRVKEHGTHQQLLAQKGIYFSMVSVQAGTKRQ

Decrease of Rh123 accumulation vs. control (P-gp) | Intracellular concentration (Caco-2 cells; [4]) | Intracellular concentration (Caco-2 cells; [5]) | Intracellular concentration (Caco-2 cells; [6]) | Increase of Rh123 accumulation vs. control (P-gp) | Ratio (-)/(+) of intracellular concentrations (Caco-2 cells; 1.0 μmol/L, 2 h) | Ratio (-)/(+) of intracellular concentrations (Caco-2 cells; 2.5 μmol/L, 2 h) | Ratio (-)/(+) of intracellular concentrations (Caco-2 cells; 5.0 μmol/L, 2 h) | Ratio (-)/(+) of intracellular concentrations (Caco-2 cells; in the presence of cyclosporine A, data not shown) | SMILES | Ratio [(+)/(−)] of cumulative amounts of biliary excretion [1] | Ratio [(+)/(−)] of cumulative amounts of urinary excretion [1] | AUC0–8 h in the portal vein [2] | AUC0–12 h [3] | Induction of CYP3A1 expression, comparison of enantiomers (CYP3A1)
28.2% | 1.093 ± 0.233 ng/mL | 2.228 ± 0.065 ng/mL | 4.677 ± 1.029 ng/mL | – | – | – | – | – | CN1C(=O)[C@H](O)[C@@H](c2ccccc2)[C@H]1[C@H](O)c1ccccc1 [(+)CLA, 3R,4S,5S,6R-CLA] | 3.49 | 3.81 | 2453 ± 1101 µg·h/mL | 2446 ± 540 µg·min/mL | –
– | 2.834 ± 0.808 ng/mL | 4.829 ± 0.603 ng/mL | 8.853 ± 2.505 ng/mL | 18.0% | 2.593 | 2.167 | 1.893 | 1.091 | CN1C(=O)[C@@H](O)[C@H](c2ccccc2)[C@@H]1[C@@H](O)c1ccccc1 [(−)CLA, 3S, 4R, 5R, 6S-clausenamide] | – | – | 1001 ± 487 µg·h/mL | 1256 ± 308 µg·min/mL | higher expression of CYP3A1 than the (+)-isomer
